Measurements as given in US20050107440A1, “Rosiglitazone edisylates and their use as antidiabetics” (priority 2001, published 2005).

Key:
Type in all cases: physicochemical
[1] = Solubility of the Ethanedisulfonate Form I in water (visual, aliquot addition); conditions: water added in aliquots 0.25 to 1 ml to approx. 30 mg; product of Example 2
[2] = Solubility of the Ethanedisulfonate Form II in water (visual, confirmed by HPLC assay of a saturated solution); conditions: water added in aliquots 1 to 1000 ml to approx. 100 mg, product of Example 7
Text: The visual solubility was confirmed by an HPLC assay of a saturated solution.

[3] = Solid state stability of the drug substance (storage 1 month, HPLC assay); conditions: product of Example 7
Protocol: The solid state stability of the drug substance was determined by storing approximately 1.0 g of the material in a glass bottle at a) 40° C./75% Relative Humidity (RH), open exposure, for 1 month and b) at 50° C., closed, for 1 month. […] Solubility of the Ethanedisulfonate Form II

| Solubility [1] | Solubility [2] | Solid state stability: HPLC assay (final content) ([3]; 40° C./75% RH, open exposure) | Solid state stability: degradation ([3]; 40° C./75% RH, open exposure) | Solid state stability: HPLC assay (final content) ([3]; 50° C., closed) | Solid state stability: degradation ([3]; 50° C., closed) | SMILES |
| --- | --- | --- | --- | --- | --- | --- |
| 4700 µg/mL | – | – | – | – | – | CN(CCOc1ccc(CC2SC(=O)NC2=O)cc1)c1ccccn1.O=S(=O)(O)CCS(=O)(=O)O (stereo not drawn) [Ethanedisulfonate Form I, 5-[4-[2-(N-methyl-N-(2-pyridyl)amino)ethoxy]benzyl]thiazolidine-2,4-dione 1,2-ethanedisulfonate Form I] |
| – | 4700 µg/mL | 98 % initial | No significant degradation observed | 99 % initial | No significant degradation observed | CN(CCOc1ccc(CC2SC(=O)NC2=O)cc1)c1ccccn1.O=S(=O)(O)CCS(=O)(=O)O (stereo not drawn) [Ethanedisulfonate Form II, 5-[4-[2-(N-methyl-N-(2-pyridyl)amino)ethoxy]benzyl]thiazolidine-2,4-dione 1,2-ethanedisulfonate Form II] |
